Legend:
[1] = system: NHDF fibroblasts (human normal skin fibroblasts); details: comparative studies by the inventors
Procedure: NHDF fibroblasts (human normal skin fibroblasts) were cultured in the DMEM medium supplemented with 10% FBS and a mixture of antibiotics—penicillin and streptomycin at 37° C., 5% CO2. […] After incubation with the compounds, the cells were washed twice with warm medium. The effect on cell viability was assessed using a standard MTT test.

TNF-alpha [2] = assay: TNF-alpha production by THP-1 derived macrophages (ELISA); assay type: cell-based, human; details: 40 μM; LPS stimulation; FIG. 13
Procedure: (§1) Monocytes of the THP-1 line were cultured in RPMI 1640 medium supplemented with 10% FBS and 2 mM glutamine. For transformation of monocytes into macrophages, the cells were treated with 12.5 ng/mL PMA (phorbol 12-myristate 13-acetate) for 48 hours, then washed and incubated for 24 hours in a culture medium without PMA. After this time, urolithin A, urolithin B, iso-urolithin A and the corresponding glucuronides (GUA, GUB and GiUA) were added to the cells at a concentration of 40 μM. After 1 hour of incubation with the compounds, the cells were stimulated with LPS from Escherichia coli (10 ng/mL).
(§2) To assess the level of TNF-alpha production, the cells were incubated for 6 hours, to assess the expression of mRNA for TNF-alpha, the cells were incubated for 24 hours, to assess the effect on ERK1/2 phosphorylation, the cells were incubated for 35 minutes.
(§3) The level of TNF-alpha in the culture medium was determined using the immunochemical ELISA method (BD biosciences). Evaluation of the expression of mRNA for TNF-alpha was performed using real time PCR. After 24 hours of incubation, RNA was isolated using NucleoSpin RNA Clean-up (Macherey-Nagel). The amount and quality of isolated RNA was determined using 2100 Bioanalyzer (Agilent Technologies). The expression level of mRNA for TNF-α was determined using Brilliant II SYBR Green QPCR Kit and Aria Mx Real-Time PCR thermocycler (Agilent Technologies). The following were used as primers for TNF-alpha: forward: 5′-[…]-3′, reverse: 5′-[…]-3′. Beta-actin (ACTB) was used as the housekeeping gene; primer forward: 5′-[…]-3′, reverse: 5′-[…]-3′).
(§4) The obtained results of experiments on in vitro models were analyzed using the Statistica 13 program (StatSoft, Inc., Tulsa, OK, USA) and presented as mean values±SEM. Statistical significance was set at P≤0.05. The results with established normal distribution in the D'Agostin and Pearson test were prepared using analysis of variance (ANOVA). Parametric post-hoc analysis was performed using Dunnett's test.

mRNA for TNF-alpha = assay: TNF-alpha mRNA expression in THP-1 derived macrophages (real time PCR); assay type: cell-based, human; details: 40 μM; LPS stimulation; FIG. 14
Procedure: as §1, §2, §3, §4

TNF-alpha [3] = assay: TNF-alpha production by macrophages from human peripheral blood monocytes (ELISA); assay type: cell-based; details: 40 μM; LPS 100 ng/mL, 24 h; FIG. 16
Procedure: Monocytes were isolated from peripheral human blood by a standard method using dextran sedimentation and Ficoll Hypaque gradient centrifugation. After isolation, monocytes were suspended in RPMI 1640 medium supplemented with L-glutamine, HEPES, streptomycin, amphotericin and gentamicin, and 20% autologous serum. Cell culture was carried out under these conditions for 7 days. […] After 24h, TNF-alpha level in the medium was determined using the immunochemical ELISA method (BD biosciences). The obtained results of experiments on in vitro models were analyzed using the Statistica 13 program (StatSoft, Inc., Tulsa, OK, USA) and presented as mean values±SEM. Statistical significance was set at P≤0.05. The results with established normal distribution in the D'Agostin and Pearson test were prepared using analysis of variance (ANOVA). Parametric post-hoc analysis was performed using Dunnett's test.

tyrosinase = target: T1, tyrosinase (Mus musculus, UniProt P11344); details: B16 melanoma cells; cited from earlier work
T1 sequence (P11344 19-533): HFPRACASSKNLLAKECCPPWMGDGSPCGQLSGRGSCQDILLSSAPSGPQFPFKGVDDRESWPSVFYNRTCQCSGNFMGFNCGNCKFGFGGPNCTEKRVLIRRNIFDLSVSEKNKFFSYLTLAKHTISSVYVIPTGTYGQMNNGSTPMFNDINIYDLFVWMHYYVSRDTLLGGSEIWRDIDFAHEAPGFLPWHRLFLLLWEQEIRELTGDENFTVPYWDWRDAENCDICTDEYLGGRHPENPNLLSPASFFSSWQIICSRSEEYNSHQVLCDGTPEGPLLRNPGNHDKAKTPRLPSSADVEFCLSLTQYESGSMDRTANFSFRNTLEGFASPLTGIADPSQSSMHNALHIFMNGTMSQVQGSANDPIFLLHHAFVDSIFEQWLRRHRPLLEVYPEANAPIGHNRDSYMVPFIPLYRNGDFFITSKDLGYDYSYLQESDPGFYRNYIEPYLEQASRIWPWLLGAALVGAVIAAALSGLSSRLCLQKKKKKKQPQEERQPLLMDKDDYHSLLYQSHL

ERK1/2 = ERK1/2 phosphorylation in THP-1 derived macrophages (Western blotting); assay type: cell-based, human; details: 40 μM; LPS 10 ng/mL, 35 min; FIG. 15
Procedure: Monocytes of the THP-1 line were cultured in RPMI 1640 medium supplemented with 10% FBS and 2 mM glutamine. For transformation of monocytes into macrophages, the cells were treated with 12.5 ng/mL PMA (phorbol 12-myristate 13-acetate) for 48 hours, then washed and incubated for 24 hours in a culture medium without PMA. After this time, urolithin A, urolithin B, iso-urolithin A and the corresponding glucuronides (GUA, GUB and GiUA) were added to the cells at a concentration of 40 μM. After 1 hour of incubation with the compounds, the cells were stimulated with LPS from Escherichia coli (10 ng/mL). To assess the level of TNF-alpha production, the cells were incubated for 6 hours, to assess the expression of mRNA for TNF-alpha, the cells were incubated for 24 hours, to assess the effect on ERK1/2 phosphorylation, the cells were incubated for 35 minutes. […] The obtained results of experiments on in vitro models were analyzed using the Statistica 13 program (StatSoft, Inc., Tulsa, OK, USA) and presented as mean values±SEM. Statistical significance was set at P≤0.05. The results with established normal distribution in the D'Agostin and Pearson test were prepared using analysis of variance (ANOVA). Parametric post-hoc analysis was performed using Dunnett's test.

Compound: CC(=O)Oc1ccc2c(c1)oc(=O)c1cc(O)ccc12 [3-acetyl-urolithin A]
- Antiproliferative activity on human skin fibroblast cells [1]: neither urolithin A, nor 8-acetyl-urolithin A, nor 3-acetyl-urolithin A showed antiproliferative activity

Compound: CC(=O)Oc1ccc2c(c1)c(=O)oc1cc(O)ccc12 [8-acetyl-urolithin A]
- Antiproliferative activity on human skin fibroblast cells [1]: neither urolithin A, nor 8-acetyl-urolithin A, nor 3-acetyl-urolithin A showed antiproliferative activity

Compound: O=c1oc2cc(O)ccc2c2ccccc12 [urolithin B]
- TNF-alpha production by THP-1 derived macrophages (TNF-alpha [2]): did not show any activity
- TNF-alpha mRNA expression in THP-1 derived macrophages (mRNA for TNF-alpha): inactive
- Inhibition of TNF-alpha production by macrophages from human peripheral blood monocytes (TNF-alpha [3]): inactive
- Tyrosinase activity (depigmentation) (tyrosinase): suppressing tyrosinase activity
- ERK1/2 kinase phosphorylation in THP-1 derived macrophages (ERK1/2): did not exhibit such activity

— US12329738B2, “Urolithin A and a composition containing same for external use in inflammations of various etiologies” (WARSZAWSKI UNIWERSYTET MEDYCZNY, priority 2018, dated 2025)
